Experiment [1] deals with Chymotrypsin-like activity (β5/β5i). Briefly: Proteasome inhibitory activity, subunit-specific cell lysate IC50, chymotrypsin-like activity. The format is biochemical.
A further experiment has as its target T1, X/β5 (Homo sapiens, UniProt P20618+P28074).
T1 construct: purchased R&D Systems
Briefly: Proteasome activity assay, purified 20S proteasome, Ac-WLA-AMC. The format is biochemical. The method, then:
Purified 20S human proteasomes (CP and IP, R&D Systems) were used to assess the in vitro inhibition of proteasome catalytic activity by LMP2 inhibitors. In our 96-well format assays involving a 100 μL total volume, 20S proteasomes (0.5 μg/mL) were incubated with inhibitors or reference compounds (e.g., carfilzomib) in assay buffer (20 mM Tris-HCl, 0.5 mM EDTA, 0.035% SDS) at room temperature for 30 min. Reactions were initiated by the addition of fluorogenic substrates containing the AMC (7-amino-4-methylcoumarin) group. Specifically, the following substrates were used: Suc-LLVY-AMC (CT-L activity, 100 μM), Ac-PAL-AMC (LMP2, 100 μM), Ac-WLA-AMC (β5, 20 μM), Ac-nLPnLD-AMC (β1,100 μM), Ac-RLR-AMC (β2/2i, 20 μM), and Ac-ANW-AMC (β5i, 100 μM). The fluorescence of liberated AMC was measured over a period of 90 min at 360 and 460 nm on a SpectraMax M5 fluorescence plate reader (Molecular Devices). For the proteasome activity of brain tissues isolated from AD mice, tissues were homogenized in RIPA buffer (50 mM Tris Cl, pH 7.4, 150 mM NaCl, 5 mM EDTA, 1% Nonidet P-40, 1% sodium deoxycholate, 0.1% SDS, 1% aprotinin, 50 mM NaF) and sonicated. Samples were centrifuged for 40 min at 14,000×g (4° C.). Protein concentration was determined using the Bradford Assay according to the manufacturer's protocol. […] Fluorescence was recorded for 90 min using a Synergy-HT (Bio Tek) plate reader.

Another experiment addresses T2, LMP7/β5i (Homo sapiens, UniProt P20618+P28062).
T2 construct: purchased R&D Systems
Briefly: Proteasome activity assay, purified 20S proteasome, Ac-ANW-AMC. The format is biochemical. The method, then:
(§1) Purified 20S human proteasomes (CP and IP, R&D Systems) were used to assess the in vitro inhibition of proteasome catalytic activity by LMP2 inhibitors. […] Reactions were initiated by the addition of fluorogenic substrates containing the AMC (7-amino-4-methylcoumarin) group. Specifically, the following substrates were used: Suc-LLVY-AMC (CT-L activity, 100 μM), Ac-PAL-AMC (LMP2, 100 μM), Ac-WLA-AMC (β5, 20 μM), Ac-nLPnLD-AMC (β1,100 μM), Ac-RLR-AMC (β2/2i, 20 μM), and Ac-ANW-AMC (β5i, 100 μM). The fluorescence of liberated AMC was measured over a period of 90 min at 360 and 460 nm on a SpectraMax M5 fluorescence plate reader (Molecular Devices). For the proteasome activity of brain tissues isolated from AD mice, tissues were homogenized in RIPA buffer (50 mM Tris Cl, pH 7.4, 150 mM NaCl, 5 mM EDTA, 1% Nonidet P-40, 1% sodium deoxycholate, 0.1% SDS, 1% aprotinin, 50 mM NaF) and sonicated. Samples were centrifuged for 40 min at 14,000×g (4° C.). Protein concentration was determined using the Bradford Assay according to the manufacturer's protocol. Finally, samples were loaded onto a 96-well plate followed by the addition of the substrate (Ac-PAL-AMC) at 37° C. Fluorescence was recorded for 90 min using a Synergy-HT (Bio Tek) plate reader.

The test system of experiment [2] is APPsw transgenic mouse (Tg2576) and LPS-induced mice (ICR strain). In words: Morris water maze test in AD mouse models. The format is in vivo. The conditions noted are these: FIG. 12A-12D. Here is the method: These two compounds were used to investigate the impacts of LMP2 inhibition on cognitive deficits in two animal models of human Alzheimer's disease (AD). In these AD models, AD develops by Aβ deposition (APPsw transgenic mouse) or lipopolysaccharide (LPS)-induced neuroinflammation. For the APPsw transgenic model, also known as Tg2576, 10-month old APPsw mice were treated i.p. with LMP2 inhibitors twice a week for 3 weeks. […] Once treatments were finished, Morris water maze test was performed. All mice were trained for three times a day for 5 days before the test. The escape latency and distance traveled were recorded on a daily-basis over a 5-day period. […] This supports that the efficacy of LMP2 inhibitors is mediated through LMP2 inhibition. One day after the completion of Morris water maze test, the ability of mouse to maintain memory was evaluated by probe trials. […] Sequentially, a step-through latency test was performed a day after the probe trial. […]
The learning trials were conducted over 5 days, with 4 trials per day, with three randomized starting points. […] Swimming pattern of each mouse was monitored and recorded by a camera mounted above the center of the pool, and the escape latency, escape distance and swimming speed were assessed by the SMART-LD program (Panlab, Spain). […]

Experiment [3] deals with T3, LMP2/β1i (Homo sapiens, UniProt P28065+P40306). Briefly: Proteasome activity assay, purified 20S proteasome, Ac-PAL-AMC. The format is biochemical. Also noted: purchased R&D Systems. The method, then: as §1
Experiment [4] concerns the target T3, LMP2/β1i. In words: Proteasome inhibitory activity, subunit-specific cell lysate IC50, LMP2. The format is biochemical. Also noted: Subunit-Specific Cell lysate IC50 (μM); endogenous in cells. The conditions noted are these: read-out: Subunit-Specific Cell lysate IC50, LMP2 (β1i).

With `CC(C)C[C@H](NC(=O)[C@H](Cc1ccccc1)NC(=O)[C@@H]1CCCN1C(=O)CNC(=O)c1cnccn1)C(=O)[C@@]1(C)CO1` [Analogue 16], the IC50 (as a rule, the concentration that gives 50% inhibition) in experiment [1] was above 10000 nM; on X/β5, above 10000 nM; on LMP7/β5i, above 10000 nM; on LMP2/β1i [3] it was 70 nM; at LMP2/β1i [4], 80 nM. Further, in experiment [2], the “cognitive deficits in the APPsw mice” value is “ameliorates cognitive deficits”.
